Results on 1 molecule are retold here after patent publication US20150072943A1, “MIXTURE OF POLAR G[…] USE IN THE TREATMENT OF PAIN AND COPD” (SANOFI, priority 2012, published 2015).

Assay [1] relates to release of TNFalpha induced by E. Coli-LPS in human bronchus parenchyma tissue culture. As to the kind of experiment: LPS-induced TNFalpha release in human bronchus parenchyma tissue culture. Type of assay: cell-based. The text has this:
Human parenchymal lung tissue was obtained from patients undergoing resection for carcinoma at San Gerardo Hospital, Monza, Italy. Patients had not received radiotherapy or chronic treatment with steroids, opioids or chemotherapy. All specimens of parenchymal tissue were obtained from sites distant from the tumour. The study was approved by the institutional ethics committee of San Gerardo hospital Monza Italy and all volunteers gave informed consent. Resected lung tissue was dissected free of tumour, large airways, pleura and visible blood vessels and finely chopped using dissecting scissors, into 2 mm fragments during several washes with Kreb's buffer (([…]: NaCl 118.4, KCl 4.7, CaCl2 2.5, KH2PO4 1.2, NaHCO3 25, glucose 11.7). Six explants (total weight approx. 30 mg) were incubated in culture bioreactor (Synthecon/NASA USA) with RPMI-1640 medium containing 1% penicillin, 1% streptomycin, and 1% gentamycin at 37° C. in 5% carbon dioxide/air for 16 hours. Tissue was then either stimulated with 100 ng/ml LPS (Sigma-Aldrich) or maintained in cell culture media alone for 4 hours. For neutralization of TNF, tissue was incubated with 0.01, 0.1, or 1 μM of VB3323 for 1 hr prior to stimulation with 100 ng/ml LPS. […] The levels of TNFalpha in the supernatant were measured by enzyme-linked immunosorbent assay (ELISA) and the concentration corrected for tissue weight. […]

Assay [2] has as its system release of TNFalpha induced by E Coli LPS in mouse bronchus parenchyma tissue culture. The experiment in a line: LPS-induced TNFalpha release in mouse bronchus parenchyma tissue culture. Type of assay: cell-based. The protocol: The animals (BALB/c male mice, 20-22 g body weight) were sacrificed by cervical dislocation. The thoracic cage was opened cutting the ribs. Clamping the heart with surgical tweezers, lungs and heart were dissected from the thoracic cavity using surgical scissors and putted in cold Krebs solution ([…]: NaCl 118.4, KCl 4.7, CaCl2 2.5, KH2PO4 1.2, NaHCO3 25, glucose 11.7). Large airways and visible blood vessels were dissected. The lungs were divided in fragments of 30 mg (˜5 pieces/mouse) and finely chopped (six pieces of ˜2 mm3 each fragment) using a scalpel. Six explants (total weight 30 mg) were incubated per well (2.0 cm2) of a 24 well plate with 1 ml of RPMI-1640 medium (RPMI-1640+antibiotic antimycotic solution 100x, Sigma-Aldrich) at 37° C. in 5% carbon dioxide/air for 16 hours. Then the medium was replaced with fresh medium and the tissue was treated for 1 hour with compound. After one hour, the tissue was stimulated with 100 ng/ml LPS E. Coli 055:B5 (Sigma-Aldrich). 4 hour after LPS stimulation, supernatant was harvested and stored at −80° C. until ELISA analysis. Three of six tissue explants were fixed in 10% formalin buffer for histological/immunohistochemical analysis. The other three tissue explants were put in RNA-later buffer overnight and then stored at −80° C. […]

As to `C[C@@H]1C[C@H]2[C@@H]3CCC4=CC(=O)C=C[C@]4(C)[C@@]3(F)[C@@H](O)C[C@]2(C)[C@@]1(O)C(=O)CO` [Dexamethasone], the inhibition at 1 µM came out at 69% in assay [1] and 67% in assay [2].

As usually defined, the inhibition is the share of the control response that was lost under treatment. High values mean a response far below the control, low ones a response near the control.
